# According to US20130165440A1, “JAK1 Inhibitors” (EXELIXIS, INC., priority 2010, published 2013):
# Biological target: T1, recombinant JAK1 enzyme (Homo sapiens, UniProt P23458)
# T1 construct: 8 nM of recombinant JAK1 enzyme (Insect expressed: V866-K1155); host or cells: insect cells
# Assay: JAK1 Kinase Assay (luciferase-luciferin-coupled chemiluminescence, ATP consumption)
# Type: biochemical
# Details: 8 nM JAK1 (V866-K1155), 30 μM IRS-1 peptide (Y608), 2 μM ATP, 2 hours ambient temperature, KinaseGlo; read-out: JAK1 IRS-1tide Chemilum (IC50)
# Procedure: JAK1 Kinase Assay Used to Test Compounds
# JAK1 Kinase activity was measured as the percent of ATP consumed following the kinase reaction using luciferase-luciferin-coupled chemiluminescence. The reaction was conducted in white medium binding 384-well microtiter plates. The kinase reaction were initiated by combining test compounds, 8 nM of recombinant JAK1 enzyme (Insect expressed: V866-K1155), 30 μM of IRS-1 peptide (Y608) and 2 μM ATP in buffer containing 20 mM Hepes (pH 7.5), 10 mM MgCl2, 0.01% Brij, 5% glycerol and 1 mM DTT in a 20 μL volume. The reaction mixture was incubated at ambient temperature for 2 hours. Following the kinase reaction, a 20 μL aliquot of KinaseGlo was added to stop the reaction and measure remaining ATP via detection of chemiluminescence using the Envison reader. Total ATP consumption was limited to 25-60%.
# T1 sequence (P23458 865-1154 limits assumed): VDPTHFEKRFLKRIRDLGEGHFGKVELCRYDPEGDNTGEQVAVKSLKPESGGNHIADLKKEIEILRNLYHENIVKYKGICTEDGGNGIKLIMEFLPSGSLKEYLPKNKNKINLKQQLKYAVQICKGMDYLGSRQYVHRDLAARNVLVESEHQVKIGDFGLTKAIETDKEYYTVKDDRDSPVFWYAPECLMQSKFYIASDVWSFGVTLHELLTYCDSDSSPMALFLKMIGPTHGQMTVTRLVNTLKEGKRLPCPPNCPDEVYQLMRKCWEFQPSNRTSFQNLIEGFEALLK
row,SMILES,IC50
1,"O=C(O)c1ccc(-c2nnc(Nc3cc(C(F)(F)F)cc(C(F)(F)F)c3)c3ccccc23)cc1 [Compound 40, 4-(4-{[3,5-bis(trifluoromethyl)phenyl]amino}phthalazin-1-yl)benzoic acid]",2000 to 30000 nM
2,"O=C1NCCN1c1ccc(-c2nnc(Nc3cc(C(F)(F)F)cc(C(F)(F)F)c3)c3ccccc23)cc1 [Compound 23, 1-[4-(4-{[3,5-bis(trifluoromethyl)phenyl]amino}phthalazin-1-yl)phenyl]imidazolidin-2-one]",≤ 150 nM
3,"COC(=O)c1ccc(-c2nnc(Nc3cccc(C#N)c3)c3ccccc23)cc1 [Compound 54, methyl 4-{4-[(3-cyanophenyl)amino]phthalazin-1-yl}benzoate]",2000 to 30000 nM
4,"COC(=O)c1ccc(-c2nnc(Nc3cc(NCCN(C)C)cc(C(F)(F)F)c3)c3ccccc23)cc1 [Compound 36, methyl 4-(4-{[3-{[2-(dimethylamino)ethyl]amino}-5-(trifluoromethyl)phenyl]amino}phthalazin-1-yl)benzoate]",150 to 500 nM
5,"COC(=O)c1ccc(-c2nnc(Nc3cc(F)cc(C(F)(F)F)c3)c3ccccc23)cc1 [Compound 35, methyl 4-(4-{[3-fluoro-5-(trifluoromethyl)phenyl]amino}phthalazin-1-yl)benzoate]",150 to 500 nM
6,"COC(=O)c1ccc(-c2nnc(Nc3ccc(Cl)c(C(F)(F)F)c3)c3ccccc23)cc1 [Compound 24, methyl 4-(4-{[4-chloro-3-(trifluoromethyl)phenyl]amino}phthalazin-1-yl)benzoate]",500 to 1000 nM
7,"COC(=O)c1ccc(-c2nnc(Nc3cc(C(F)(F)F)cc(C(F)(F)F)c3)c3ccccc23)c(C)c1 [Compound 64, methyl 4-(4-{[3,5-bis(trifluoromethyl)phenyl]amino}phthalazin-1-yl)-3-methylbenzoate]",500 to 1000 nM
8,"COC(=O)c1ccc(-c2nnc(Nc3cc(CCN(C)C)cc(C(F)(F)F)c3)c3ccccc23)cc1 [Compound 60, methyl 4-[4-({3-[2-(dimethylamino)ethyl]-5-(trifluoromethyl)phenyl}amino)phthalazin-1-yl]benzoate]",500 to 1000 nM
9,"CCc1cccc(Nc2nnc(-c3ccc(C(=O)OC)cc3)c3ccccc23)c1 [Compound 21, methyl 4-{4-[(3-ethylphenyl)amino]phthalazin-1-yl}benzoate]",150 to 500 nM
10,"COC(=O)c1ccc(-c2nnc(Nc3cc(OC)cc(C(F)(F)F)c3)c3ccccc23)cc1 [Compound 32, methyl 4-(4-{[3-(methyloxy)-5-(trifluoromethyl)phenyl]amino}phthalazin-1-yl)benzoate]",500 to 1000 nM
11,"COC(=O)c1ccc(-c2nnc(Nc3cc(C(F)(F)F)cc(C(F)(F)F)c3)c3ccccc23)s1 [Compound 17, methyl 5-(4-{[3,5-bis(trifluoromethyl)phenyl]amino}phthalazin-1-yl)thiophene-2-carboxylate]",2000 to 30000 nM
12,COC(=O)c1ccc(-c2nnc(Nc3cccc(C(F)(F)F)c3)c3cccnc23)cc1 [Compound 13],500 to 1000 nM
13,"COC(=O)c1ccc(-c2nnc(Nc3cccc(Br)c3)c3ccccc23)cc1 [Compound 51, methyl 4-{4-[(3-bromophenyl)amino]phthalazin-1-yl}benzoate]",150 to 500 nM
14,"COC(=O)c1ccc(-c2nnc(Nc3cccc(C(F)(F)F)c3)c3cnccc23)cc1 [Compound 29, methyl 4-(4-{[3-(trifluoromethyl)phenyl]amino}pyrido[3,4-d]pyridazin-1-yl)benzoate]",150 to 500 nM
15,"Nc1n[nH]c2cc(-c3nnc(Nc4cc(C(F)(F)F)cc(C(F)(F)F)c4)c4ccccc34)ccc12 [Compound 38, 4-(3-amino-1H-indazol-6-yl)-N-[3,5-bis(trifluoromethyl)phenyl]phthalazin-1-amine]",≤ 150 nM
16,"COC(=O)c1ccc(-c2nnc(Nc3cc(CN(C)C)cc(C(F)(F)F)c3)c3ccccc23)cc1 [Compound 30, methyl 4-[4-({3-[(dimethylamino)methyl]-5-(trifluoromethyl)phenyl}amino)phthalazin-1-yl]benzoate]",500 to 1000 nM
17,"COC(=O)c1ccc(-c2nnc(Nc3cc(C(=O)OC)cc(C(F)(F)F)c3)c3ccccc23)cc1 [Compound 15, methyl 3-[(4-{4-[(methyloxy)carbonyl]phenyl}phthalazin-1-yl)amino]-5-(trifluoromethyl)benzoate]",2000 to 30000 nM
18,"COC(=O)c1ccc(-c2nnc(Nc3cc(CCCN(C)C)cc(C(F)(F)F)c3)c3ccccc23)cc1 [Compound 22, methyl 4-[4-({3-[3-(dimethylamino)propyl]-5-(trifluoromethyl)phenyl}amino)phthalazin-1-yl]benzoate]",≤ 150 nM
19,"O=C1OCc2cc(-c3nnc(Nc4cc(C(F)(F)F)cc(C(F)(F)F)c4)c4ccccc34)ccc21 [Compound 27, 5-(4-{[3,5-bis(trifluoromethyl)phenyl]amino}phthalazin-1-yl)-2-benzofuran-1(3H)-one]",2000 to 30000 nM
20,COC(=O)c1ccc(-c2nnc(Nc3cccc(C)c3)c3ccccc23)cc1 [Compound 47],500 to 1000 nM
21,"FC(F)(F)c1cc(Nc2nnc(-c3ccc4cn[nH]c4c3)c3ccccc23)cc(C(F)(F)F)c1 [Compound 33, N-[3,5-bis(trifluoromethyl)phenyl]-4-(1H-indazol-6-yl)phthalazin-1-amine]",≤ 150 nM
22,"COC(=O)c1ccc(-c2nnc(Nc3cccc(C(C)C)c3)c3ccccc23)cc1 [Compound 62, methyl 4-(4-{[3-(1-methylethyl)phenyl]amino}phthalazin-1-yl)benzoate]",150 to 500 nM
23,"COC(=O)c1ccc(-c2nnc(Nc3cc(OCCN(C)C)cc(C(F)(F)F)c3)c3ccccc23)cc1 [Compound 10, methyl 4-(4-{[3-{[2-(dimethylamino)ethyl]oxy}-5-(trifluoromethyl)phenyl]amino}phthalazin-1-yl)benzoate]",150 to 500 nM
24,"Cc1cc(-c2ccc(-c3nnc(Nc4cc(C(F)(F)F)cc(C(F)(F)F)c4)c4ccccc34)cc2)n[nH]1 [Compound 61, N-[3,5-bis(trifluoromethyl)phenyl]-4-[4-(5-methyl-1H-pyrazol-3-yl)phenyl]phthalazin-1-amine]",500 to 1000 nM
25,"CNC(=O)c1ccc(-c2nnc(Nc3cc(C(F)(F)F)cc(C(F)(F)F)c3)c3ccccc23)cc1 [Compound 55, 4-(4-{[3,5-bis(trifluoromethyl)phenyl]amino}phthalazin-1-yl)-N-methylbenzamide]",150 to 500 nM
26,"COC(=O)c1ccc(-c2nnc(Nc3cccc(C(C)(C)C)c3)c3ccccc23)cc1 [Compound 4, methyl 4-(4-{[3-(1,1-dimethylethyl)phenyl]amino}phthalazin-1-yl)benzoate]",500 to 1000 nM
27,COC(=O)c1ccc(-c2nnc(Nc3ccc(Cl)cc3)c3ccccc23)cc1 [Compound 26],1000 to 2000 nM
28,"COC(=O)c1ccc(-c2nnc(Nc3cc(N4CCN(C)CC4)cc(C(F)(F)F)c3)c3ccccc23)cc1 [Compound 20, methyl 4-(4-{[3-(4-methylpiperazin-1-yl)-5-(trifluoromethyl)phenyl]amino}phthalazin-1-yl)benzoate]",1000 to 2000 nM
29,"NC(=O)c1ccc(-c2nnc(Nc3cc(C(F)(F)F)cc(C(F)(F)F)c3)c3ccccc23)cc1 [Compound 9, 4-(4-{[3,5-bis(trifluoromethyl)phenyl]amino}phthalazin-1-yl)benzamide]",1000 to 2000 nM
